Measured values: the supplement of paper PMC11781733
Counter-ions that a name gives are not always drawn.

Legend:
Conditions in all cases: exposure time: 15 min to 3 h acute
Dugesia japonica [1] = assay: stickiness incidence (% planarians (vehicle-normalised)); higher = higher incidence or increase relative to vehicle control
Method: (§1)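 Adult asexual Dugesia japonica planarians (1 per well, 48-well plate, n=24 over technical triplicates) were exposed acutely (15 min to 3 h) to each compound (0.5% DMSO or water vehicle) and screened on a robotic platform for crawl-out, stickiness, body shape, phototaxis, noxious-heat scrunching and locomotion endpoints. Binary endpoints are incidence rate x100 normalised to in-plate vehicle controls. Continuous endpoints are the median response normalised to the plate vehicle median, as % change or difference. Negative incidences after vehicle subtraction were set to 0.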

Dugesia japonica [2] = assay: C-shape incidence (% planarians (vehicle-normalised)); higher = higher incidence or increase relative to vehicle control
Method: as §1

Dugesia japonica [3] = assay: loss of phototaxis incidence (% planarians (vehicle-normalised)); higher = higher incidence or increase relative to vehicle control
Method: as §1

Dugesia japonica [4] = assay: hyperkinesis incidence (% planarians (vehicle-normalised)); higher = higher incidence or increase relative to vehicle control
Method: as §1

Dugesia japonica [5] = assay: crawl-out incidence (% planarians); higher = higher incidence or increase relative to vehicle control
Method: as §1, with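 “x100.” for “x100 normalised to in-plate vehicle controls.”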

Dugesia japonica [6] = assay: total locomotor bursts minus vehicle (bursts difference vs vehicle); higher = higher incidence or increase relative to vehicle control
Method: as §1

Dugesia japonica [7] = assay: pharynx extrusion incidence (% planarians (vehicle-normalised)); higher = higher incidence or increase relative to vehicle control
Method: as §1

Dugesia japonica [8] = assay: resting fraction in blue light vs vehicle (difference in fraction x100 vs vehicle); higher = higher incidence or increase relative to vehicle control
Method: as §1

Dugesia japonica [9] = assay: speed first 30 s blue light vs vehicle (% change vs vehicle); higher = higher incidence or increase relative to vehicle control
Method: as §1

Dugesia japonica [10] = assay: noxious heat displacement strength vs vehicle (% change vs vehicle); higher = higher incidence or increase relative to vehicle control
Method: as §1

Dugesia japonica [11] = assay: speed second 30 s blue light vs vehicle (% change vs vehicle); higher = higher incidence or increase relative to vehicle control
Method: as §1

Dugesia japonica [12] = assay: contracted body shape incidence (% planarians (vehicle-normalised)); higher = higher incidence or increase relative to vehicle control
Method: as §1

Dugesia japonica [13] = assay: anxiety (time in outer well region) vs vehicle (% change vs vehicle); higher = higher incidence or increase relative to vehicle control
Method: as §1

Dugesia japonica [14] = assay: any abnormal body shape incidence (% planarians (vehicle-normalised)); higher = higher incidence or increase relative to vehicle control
Method: as §1

Dugesia japonica [15] = assay: resting fraction in dark vs vehicle (difference in fraction x100 vs vehicle); higher = higher incidence or increase relative to vehicle control
Method: as §1

Dugesia japonica [16] = assay: corkscrew incidence (% planarians (vehicle-normalised)); higher = higher incidence or increase relative to vehicle control
Method: as §1

Dugesia japonica [17] = assay: loss of heat-induced scrunching incidence (% planarians (vehicle-normalised)); higher = higher incidence or increase relative to vehicle control
Method: as §1

Dugesia japonica [18] = assay: speed in dark vs vehicle (% change vs vehicle); higher = higher incidence or increase relative to vehicle control
Method: as §1

SMILES | stickiness incidence (Dugesia japonica [1]) | C-shape incidence (Dugesia japonica [2]) | loss of phototaxis incidence (Dugesia japonica [3]) | hyperkinesis incidence (Dugesia japonica [4]) | crawl-out incidence (Dugesia japonica [5]) | total locomotor bursts minus vehicle (Dugesia japonica [6]) | pharynx extrusion incidence (Dugesia japonica [7]) | resting fraction in blue light (Dugesia japonica [8]) | speed first 30 s blue light (Dugesia japonica [9]) | noxious heat displacement strength (Dugesia japonica [10]) | speed second 30 s blue light (Dugesia japonica [11]) | contracted body shape incidence (Dugesia japonica [12]) | anxiety (Dugesia japonica [13]) | any abnormal body shape incidence (Dugesia japonica [14]) | resting fraction in dark (Dugesia japonica [15]) | corkscrew incidence (Dugesia japonica [16]) | loss of heat-induced scrunching incidence (Dugesia japonica [17]) | speed in dark (Dugesia japonica [18])
CN1CCN(C2=Nc3cc(Cl)ccc3Nc3ccccc32)CC1 [clozapine] (10 µM) | 25 | 4.17 | 29.2 | 54.2 | 0 | 15.2 | 0 | 70.9 | -89.8 | -39.6 | -90.5 | 8.33 | -100 | 58.3 | 73.9 | 4.17 | 75 | -75.7
CN(C)CCCC1(c2ccc(F)cc2)OCc2cc(C#N)ccc21 (configuration not stated) [citalopram hydrobromide] (31.6 µM) | ≤ 0 | 0 | 16.7 | 16.7 | 0 | 1.25 | 0 | 0 | 6.16 | -16.4 | -6.94 | 0 | 4.85 | 16.7 | 1.41 | 0 | 33.3 | 3.2
O=C1CCc2ccc(OCCCCN3CCN(c4cccc(Cl)c4Cl)CC3)cc2N1 [aripiprazole] (3.16 µM) | ≤ 0 | 0 | 45.8 | 4.17 | 0 | -2.5 | 0 | 0.05 | 18.9 | 0.14 | 8.71 | 0 | 0.35 | 4.17 | -2.43 | 0 | 4.17 | 27.4
O=C(CCCN1CCC(O)(c2ccc(Br)cc2)CC1)c1ccc(F)cc1 [bromperidol] (31.6 µM) | ≤ 0 | 4.35 | ≤ 0 | 69.6 | 8.33 | 0.5 | 0 | 37.3 | -69 | -36.2 | -63.1 | 30.4 | 20.6 | 73.9 | 43.3 | 21.7 | 52.2 | -41
CCCCNc1c(C(=O)OCC)c(C)nc2c1cnn2CC [tracazolate hydrochloride] (3.16 µM) | ≤ 0 | 0 | 8.33 | 12.5 | 0 | 0.5 | 0 | 0.22 | -7.17 | -6.19 | -5.52 | 0 | -16.4 | 8.33 | 0 | 0 | ≤ 0 | -4.2
CN(C)CCCC1(c2ccc(F)cc2)OCc2cc(C#N)ccc21 (configuration not stated) [citalopram hydrobromide] (1000 µM) | ≤ 0 | 0 | 16.7 | 83.3 | 0 | 40.2 | 0 | 16.8 | -57.3 | -42.7 | -71.1 | 0 | 11.2 | 83.3 | 17.8 | 0 | 8.33 | -48.7
Cc1cc2c(s1)Nc1ccccc1N=C2N1CCN(C)CC1 [olanzapine] (31.6 µM) | 16.7 | 4.17 | 17.4 | 62.5 | 4.17 | 6 | 0 | 77.7 | -93.9 | -52.3 | -89.9 | – | 24.7 | 75 | 78.3 | 16.7 | 75 | -71.9
Cc1cc2c(s1)Nc1ccccc1N=C2N1CCN(C)CC1 [olanzapine] (10 µM) | ≤ 0 | 4.17 | 4.17 | 58.3 | 0 | 20 | 0 | 63.5 | -85.6 | -28.1 | -80.9 | 0 | -12.4 | 58.3 | 72.3 | – | 58.3 | -68
